Measured values as given in US20260185118A1 (priority 2023, published 2026).

Tested on: Diaphorina citri Kuwayama
Assay type: in vivo
Conditions: solution at 1 μg/L in n-hexane applied to citrus leaves, compared to solvent n-hexane, 40 min

Compound: C=C1CC/C=C(\C)CC[C@@H]2[C@@H]1CC2(C)C [β-caryophyllene]
- effect on Diaphorina citri Kuwayama selection preference: significant repulsive effect

Compound: (E)-β-farnesene
- effect on Diaphorina citri Kuwayama selection preference: significant repulsive effect
